Results taken from ChEMBL document CHEMBL5512688 (J Med Chem, 2024).

Legend:
Wee1-like protein kinase [1] = molecular target: T1, Wee1-like protein kinase (Homo sapiens, UniProt P30291); experiment: Inhibition of human Wee1 (215 to 647 residues) using polyornithine/tyrosine (4:1) as substrate incubated for 5 mins in presence of ATP by micro beta plate reader analysis
A-427 = experiment: Antiproliferative activity against human A-427 cells assessed as inhibition of cell growth incubated for 72 hrs by CCK-8 assay; format: functional, cell-based; conditions: A-427, 72 h
[2] = Metabolic stability in human liver microsome assessed as parent compound remaining measured at 60 mins by LCMS/MS analysis; format: ADME; conditions: liver microsomes, read-out: Stability
[3] = Metabolic stability in mouse liver microsome assessed as parent compound remaining measured at 60 mins by LCMS/MS analysis; format: ADME; conditions: liver microsomes, read-out: Stability
[4] = AUC (0 to 24 hrs) in ICR mouse at 1 mg/kg, iv measured upto 24 hrs by LC-MS/MS analysis; format: ADME, organism-based; conditions: in vivo
[5] = Half life in ICR mouse at 1 mg/kg, iv measured upto 24 hrs by LC-MS/MS analysis; format: ADME, organism-based; conditions: in vivo
[6] = Volume of distribution in ICR mouse at 1 mg/kg, iv measured upto 24 hrs by LC-MS/MS analysis; format: ADME, organism-based; conditions: in vivo
[7] = Clearance in ICR mouse at 1 mg/kg, iv measured upto 24 hrs by LC-MS/MS analysis; format: ADME, organism-based; conditions: in vivo
[8] = AUC (0 to 24 hrs) in ICR mouse at 60 mg/kg, IG measured upto 24 hrs by LC-MS/MS analysis; format: ADME, organism-based; conditions: in vivo, po
[9] = Half life in ICR mouse at 60 mg/kg, IG measured upto 24 hrs by LC-MS/MS analysis; format: ADME, organism-based; conditions: in vivo, po
[10] = Bioavailability in ICR mouse at 60 mg/kg, IG measured upto 24 hrs by LC-MS/MS analysis; format: ADME, organism-based; conditions: in vivo, po
LoVo = experiment: Antiproliferative activity against human LoVo cells assessed as inhibition of cell growth incubated for 72 hrs by CCK-8 method; format: functional, cell-based
Wee1-like protein kinase [11] = molecular target: T1, Wee1-like protein kinase; experiment: Inhibition of Wee1 in human U2OS cells assessed as reduction in CDK1 phosphorylation measured for 1 hr by Western blot analysis; format: cell-based

T1 sequence (P30291 whole entry, the tested form may be a part): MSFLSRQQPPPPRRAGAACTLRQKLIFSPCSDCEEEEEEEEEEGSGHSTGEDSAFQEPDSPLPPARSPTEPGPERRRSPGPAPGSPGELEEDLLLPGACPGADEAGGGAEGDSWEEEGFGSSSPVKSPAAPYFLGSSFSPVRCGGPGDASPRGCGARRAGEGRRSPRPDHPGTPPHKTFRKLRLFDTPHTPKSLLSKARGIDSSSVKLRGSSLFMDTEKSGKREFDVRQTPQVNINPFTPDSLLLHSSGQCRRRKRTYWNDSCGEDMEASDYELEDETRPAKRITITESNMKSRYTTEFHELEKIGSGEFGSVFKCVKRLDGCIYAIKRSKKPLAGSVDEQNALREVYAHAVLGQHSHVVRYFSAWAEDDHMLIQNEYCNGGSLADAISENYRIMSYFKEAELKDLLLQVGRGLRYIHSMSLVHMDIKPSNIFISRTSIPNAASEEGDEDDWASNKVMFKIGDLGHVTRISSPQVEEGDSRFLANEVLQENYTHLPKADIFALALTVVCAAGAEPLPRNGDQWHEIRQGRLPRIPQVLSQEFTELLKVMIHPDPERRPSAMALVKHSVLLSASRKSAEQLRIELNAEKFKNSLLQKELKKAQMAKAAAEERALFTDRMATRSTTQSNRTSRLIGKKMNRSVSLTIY

| SMILES | IC50 (Wee1-like protein kinase [1]) | IC50 (A-427) | remaining at 1 h [2] | remaining at 1 h [3] | also measured |
| --- | --- | --- | --- | --- | --- |
| C=CCn1c(=O)c2cnc(Nc3ccc(C4CCN(C)CC4)cc3)nc2n1-c1cccc(-c2ncccn2)n1 | 2.1 nM | 334 nM | 67.3% | 79.4% | AUC(0-t) at 24 h [4]: 236 ng·h/mL; half-life [5]: 1.51 h; Vd [6]: 9.03 L/kg; clearance [7]: 69.5 mL/min/kg; AUC(0-t) at 24 h [8]: 4280 ng·h/mL; half-life [9]: 3.55 h; bioavailability [10]: 30.3% |
| COCCn1c(=O)c2cnc(Nc3ccc(N4CCN(C)CC4)cc3)nc2n1-c1cccc(-c2cnccn2)n1 | 16 nM | 512 nM | – | – | – |
| C=CCn1c(=O)c2cnc(Nc3ccc(N4CCN(C)CC4)cc3)nc2n1-c1cccc(-n2cnc(C)c2)n1 | 3.8 nM | 347 nM | 7.35% | 18.6% | – |
| C=CCn1c(=O)c2cnc(Nc3ccc(N4CCN(C)CC4)cc3)nc2n1-c1ccc2ccccc2n1 | 2.2 nM | 949 nM | – | – | – |
| C=CCn1c(=O)c2cnc(Nc3ccc(N4CCN(C)CC4)cc3)nc2n1-c1cccc(-n2cc(C)cn2)n1 | 3.7 nM | 221 nM | 6.06% | 11.2% | – |
| CN1CCN(c2ccc(Nc3ncc4c(=O)n(CC5CC5)n(-c5cccc(-c6cnccn6)n5)c4n3)cc2)CC1 | 33 nM | 1870 nM | – | – | – |
| C=CCn1c(=O)c2cnc(Nc3ccc(N4CCN(CCN(C)C)CC4)cc3)nc2n1-c1cccc(-c2ncccn2)n1 | 3.1 nM | 556 nM | 106% | 94.7% | – |
| C=CCn1c(=O)c2cnc(Nc3ccc(N4C5CCC4CN(C)C5)cc3)nc2n1-c1cccc(-c2cccnn2)n1 | 3 nM | 226 nM | 28.6% | 23.8% | – |
| C=CCn1c(=O)c2cnc(Nc3ccc(N4CCN(C)CC4)cc3)nc2n1-c1cccc(-c2ncc(F)cn2)n1 | 3.2 nM | 454 nM | 49.8% | 48.2% | – |
| C=CCn1c(=O)c2cnc(Nc3ccc4c(c3)CN(C)CC4)nc2n1-c1cccc(-c2cccnn2)n1 | 2.3 nM | 245 nM | 42.2% | 39.4% | – |
| C=CCn1c(=O)c2cnc(Nc3ccc(N4CCN(C)CC4)c(OC)c3)nc2n1-c1cccc(-c2cccnn2)n1 | 2.5 nM | 231 nM | 34.8% | 53.1% | – |
| C=CCn1c(=O)c2cnc(Nc3ccc(N4CCN(C)CC4)cc3)nc2n1-c1cccc(-c2cnc(Cl)cn2)n1 | 2.2 nM | 434 nM | – | – | – |
| C=CCn1c(=O)c2cnc(Nc3ccc(N4CCN(C)CC4)cc3)nc2n1-c1ccc2cnn(C(C)C)c2c1 | 2.4 nM | 315 nM | – | – | – |
| C=CCn1c(=O)c2cnc(Nc3ccc(N4C[C@@H](C)N[C@@H](C)C4)cc3)nc2n1-c1cccc(-c2cccnn2)n1 | 2.1 nM | 240 nM | 74.1% | 87.1% | AUC(0-t) at 24 h [4]: 86.7 ng·h/mL; half-life [5]: 1.56 h; Vd [6]: 20.3 L/kg; clearance [7]: 178 mL/min/kg; AUC(0-t) at 24 h [8]: 20.8 ng·h/mL; bioavailability [10]: 0.4% |
| C=CCn1c(=O)c2cnc(Nc3ccc(N4CCN(C)CC4)cc3)nc2n1-c1cccc(-c2cnn(C(F)F)c2)n1 | 2.5 nM | 372 nM | – | – | – |
| C=CCn1c(=O)c2cnc(Nc3ccc(N4CCN(C)CC4)cc3)nc2n1-c1cccc(-c2ccc(F)cn2)n1 | 1.8 nM | 327 nM | 29.7% | 18.1% | – |
| C=CCn1c(=O)c2cnc(Nc3ccc(N4CCC(N5CCN(C)CC5)CC4)cc3)nc2n1-c1cccc(-c2ncccn2)n1 | 3.7 nM | 585 nM | 88.9% | 97.1% | AUC(0-t) at 24 h [4]: 980 ng·h/mL; half-life [5]: 2.39 h; Vd [6]: 3.72 L/kg; clearance [7]: 16.8 mL/min/kg; AUC(0-t) at 24 h [8]: 32400 ng·h/mL; half-life [9]: 3.71 h; bioavailability [10]: 55.1%; IC50 (LoVo): 714 nM; IC50 (Wee1-like protein kinase [11]): 914 nM |
| C=CCn1c(=O)c2cnc(Nc3ccc(N4CCN(CCN(C)C)CC4)cc3)nc2n1-c1cccc(-c2cnccn2)n1 | 3.1 nM | 238 nM | 67.2% | 56.9% | – |
| C=CCn1c(=O)c2cnc(Nc3ccc(N4CCN(C)CC4)cc3)nc2n1-c1cccc(-c2cccnn2)n1 | 2 nM | 206 nM | 46.5% | 55.1% | AUC(0-t) at 24 h [4]: 170 ng·h/mL; half-life [5]: 2.45 h; Vd [6]: 11.7 L/kg; clearance [7]: 88.2 mL/min/kg; AUC(0-t) at 24 h [8]: 4270 ng·h/mL; half-life [9]: 8.65 h; bioavailability [10]: 41.9% |
| C=CCn1c(=O)c2cnc(Nc3ccc4c(c3)CNCC4)nc2n1-c1cccc(-c2ncccn2)n1 | 1.4 nM | 283 nM | 81% | 65.8% | – |

| SMILES | IC50 (Wee1-like protein kinase [1]) | IC50 (A-427) | remaining at 1 h [2] | remaining at 1 h [3] | also measured |
| --- | --- | --- | --- | --- | --- |
| C=CCn1c(=O)c2cnc(Nc3ccc(N4CCN(C)CC4)cc3)nc2n1-c1cccc(-n2cccn2)n1 | 2.4 nM | 252 nM | 18% | 8.82% | – |
| C=CCCn1c(=O)c2cnc(Nc3ccc(N4CCN(C)CC4)cc3)nc2n1-c1cccc(-c2cnccn2)n1 | 9.4 nM | 1050 nM | – | – | – |
| C=CCn1c(=O)c2cnc(Nc3ccc(N4C[C@@H](C)N[C@@H](C)C4)cc3)nc2n1-c1cccc(-c2ncccn2)n1 | 2.4 nM | 341 nM | 51.3% | 83.9% | AUC(0-t) at 24 h [4]: 35.5 ng·h/mL; half-life [5]: 1.72 h; Vd [6]: 60.5 L/kg; clearance [7]: 427 mL/min/kg; AUC(0-t) at 24 h [8]: 1850 ng·h/mL; half-life [9]: 5.42 h; bioavailability [10]: 87.1% |
| C=CCn1c(=O)c2cnc(Nc3ccc(N4CCN(C)CC4)cc3)nc2n1-c1cccc(-n2cc(F)cn2)n1 | 4.5 nM | 329 nM | 3.89% | 15.9% | – |
| C=CCn1c(=O)c2cnc(Nc3ccc(N4C[C@H]5C[C@@H]4CN5C)cc3)nc2n1-c1cccc(-c2cnccn2)n1 | 2.3 nM | 226 nM | 73.5% | 40.5% | – |
| CC(C)n1c(=O)c2cnc(Nc3ccc(N4CCN(C)CC4)cc3)nc2n1-c1cccc(-c2cnccn2)n1 | 3.4 nM | 1410 nM | – | – | – |
| C=CCn1c(=O)c2cnc(Nc3ccc(N4CCN(CCO)CC4)cc3)nc2n1-c1cccc(-c2cnccn2)n1 | 2.9 nM | 105 nM | 71.2% | 56% | AUC(0-t) at 24 h [4]: 74.3 ng·h/mL; half-life [5]: 1.3 h; Vd [6]: 17 L/kg; clearance [7]: 218 mL/min/kg; AUC(0-t) at 24 h [8]: 2440 ng·h/mL; half-life [9]: 4.68 h; bioavailability [10]: 54.9% |
| C=CCn1c(=O)c2cnc(Nc3ccc(N4CCN(C)CC4)cc3)nc2n1-c1cccc(-n2nc(C)cc2C)n1 | 2.2 nM | 955 nM | – | – | – |
| C=CCn1c(=O)c2cnc(Nc3ccc(N4CCN(C)CC4)cc3)nc2n1-c1cc(-c2cnccn2)ccn1 | 12.6 nM | 3510 nM | – | – | – |
| C=CCn1c(=O)c2cnc(Nc3ccc(N4CCN(C)CC4)cc3)nc2n1-c1cccc(-n2ccc(C)n2)n1 | 4.1 nM | 898 nM | – | – | – |
| C=CCn1c(=O)c2cnc(Nc3ccc(N4CCN(C)CC4)cc3)nc2n1-c1cccc(-c2ncc(C#N)cn2)n1 | 2.4 nM | 342 nM | – | – | – |
| C=CCn1c(=O)c2cnc(Nc3ccc(N4C5CCC4CN(C)C5)cc3)nc2n1-c1cccc(-c2cnccn2)n1 | 2 nM | 603 nM | – | – | – |
| C=CCn1c(=O)c2cnc(Nc3ccc(N4CCNCC4)cc3)nc2n1-c1cccc(-c2ncccn2)n1 | 0.89 nM | 320 nM | 90.9% | 99.1% | AUC(0-t) at 24 h [4]: 199 ng·h/mL; half-life [5]: 1.24 h; Vd [6]: 5.66 L/kg; clearance [7]: 82 mL/min/kg; AUC(0-t) at 24 h [8]: 235 ng·h/mL; bioavailability [10]: 1.96% |
| C=CCn1c(=O)c2cnc(Nc3ccc(N4CCN(C)CC4)cc3)nc2n1-c1cccc(-c2cc(F)ccn2)n1 | 2.4 nM | 240 nM | 30.7% | 13.4% | – |
| C=CCn1c(=O)c2cnc(Nc3ccc(C4CCN(C)CC4)cc3)nc2n1-c1cccc(-c2cccnn2)n1 | 1.8 nM | 156 nM | 67% | 44.7% | – |
| C=CCn1c(=O)c2cnc(Nc3ccc(N4CCN(C)CC4)cc3)nc2n1-c1cncc(-c2cnccn2)c1 | 13.4 nM | 4180 nM | – | – | – |
| C=CCn1c(=O)c2cnc(Nc3ccc(N4CCN(C)CC4)cc3)nc2n1-c1cccc(-c2cccc(F)n2)n1 | 2.2 nM | 280 nM | 32.5% | 18.4% | – |
| C=CCn1c(=O)c2cnc(Nc3ccc(N4C[C@@H](C)N[C@@H](C)C4)cc3)nc2n1-c1cccc(-c2cnccn2)n1 | 1.7 nM | 232 nM | 44.1% | 17.8% | – |
| C=CCn1c(=O)c2cnc(Nc3ccc(N4CCN(C)CC4)cc3)nc2n1-c1ccc2ncn(C(C)C)c2c1 | 2.1 nM | 310 nM | – | – | – |
| C=CCn1c(=O)c2cnc(Nc3ccc(N4CCN(C)CC4)cc3)nc2n1-c1cccc(-c2cnn(C)c2)n1 | 2.6 nM | 616 nM | – | – | – |
